Peptide text beside a SMILES is read from it.
Compound | logP
CON(C)C(=O)Nc1ccc(C(=O)c2ccccc2)cc1 | 2.86
O=C(O)COc1cccc(C(F)(F)F)c1 | 2.36
CCC(C)Cl (stereo unspecified) | 2.33
CC(=O)N[C@H](C(=O)N[C@@H](C)C(=O)N[C@H](C(N)=O)C(C)C)C(C)C (Ac-Val-Ala-Val-NH2) | -0.67
CC(C)=CC1C(C(=O)OCN2C(=O)C3=C(CCCC3)C2=O)C1(C)C (stereo unspecified) | 4.73
O=c1[nH]c2ccccc2n1C1CCN(CCCC(c2ccc(F)cc2)c2ccc(F)cc2)CC1 | 6.3
Cc1ncc([N+](=O)[O-])n1CCS(=O)(=O)C(C)C | 0.13
CCN(CC)C(=O)N(C)N=O | 1.11
CCOP(=S)(OCC)Oc1ccc(SC)cc1 | 4.16
Clc1cc(Cl)nc(-c2ccccc2)n1 | 4.17
CC(=O)Oc1ccccc1Cl | 2.18
Clc1cncc(Cl)c1 | 2.56
O=C1CN=C(c2ccccc2)c2cc(F)ccc2N1 | 2.32
O=C(O)c1cc(Cl)ccc1O | 3.09
CC(C)Nc1nc(NC(C)(C)C)nc(SC(F)F)n1 | 4.7
NS(=O)(=O)c1cc2c(cc1Cl)NC(CCl)NS2(=O)=O (stereo unspecified) | 0.11
c1ncc2nc[nH]c2n1 | -0.37
COC(=O)CNC(=O)c1ccc(N)cc1 | -0.23
CC(=O)Oc1cccc([N+](=O)[O-])c1 | 1.82
C(#Cc1ccccc1)c1ccccc1 | 4.78
CCCCCCCCOc1ccc(NC(=O)OCCN2CCCCC2)cc1 | 6.44
CNCC(O)c1ccc(O)cc1 (stereo unspecified) | -0.45
Clc1cc(Cl)c(-c2c(Cl)ccc(Cl)c2Cl)cc1Cl | 7.28
CC(O)CO (stereo unspecified) | -0.92
CCN(CC)Cc1cccnc1 | 1.01
CCOC(=O)C(=Cc1ccccc1F)C(=O)OCC | 3.04

Compound | logP
O=C(O)Cc1cccc([N+](=O)[O-])c1 | 1.45
COc1ccccc1C=CC(=O)OCCOc1ccc(C=NO)cc1OC | 3.56
CC(C)(C)NCCO | 0.41
Cc1ccccc1OC(=O)c1ccc(N)cc1O | 3.14
O=P1(NCCCl)OCCCN1CCCl (stereo unspecified) | 0.86
Clc1ccc(-c2ccc(Cl)cc2Cl)c(Cl)c1 | 6.29
O=S1(=O)Nc2ccccc2N1 | 1.12
CCC(=O)OC1(C(C)=O)C(C)CC2C3CCC4=CC(=O)C=CC4(C)C3(F)C(O)CC21C (stereo unspecified) | 3.09
CCCCCCCOc1cccc(NC(=O)OCCN2CCCCC2)c1 | 5.53
CCCCCNc1nc(NCC)nc(SC(F)F)n1 | 4.71
CC(=O)c1ccc(C(=O)O)cc1 | 1.61
COc1ccc(CC#N)cc1OC | 1.15
Oc1ccc(Cl)c2ccccc12 | 3.94
CCC(=O)Nc1ccccc1 | 1.61
CN(C)C(=O)Nc1ccc(Cl)c(Cl)c1 | 2.68
C[C@](N)(C(=O)O)c1cccc2ccccc12 | -0.22
CN(C)C(N(C)C)=S(I)c1ccc(F)cc1 (stereo unspecified) | -0.58
NCC(=O)NCC(=O)O | -2.92
CC(=O)N[C@@H](Cc1ccccc1)C(=O)NCC(N)=O (Ac-Phe-Gly-NH2) | -0.5
Cn1ccc2ccccc21 | 2.72
O=C(c1ccccc1)c1ccc(NS(=O)(=O)C(F)(F)F)cc1 | 4.28
Nc1ccc(S(=O)(=O)Nc2ccccc2)cc1 | 1.55
CCOC(=O)C(=Cc1ccccc1[N+](=O)[O-])C(=O)OCC | 2.54
Cc1cc(C)c2c(c1)C(c1ccccc1)=NCC(=O)N2 | 2.94
Clc1ccc2cc[nH]c2c1 | 3.25
Cc1ccc(/C(=C\CN2CCCC2)c2ccccn2)cc1 | 3.92

Compound | logP
COP(=S)(OC)Oc1ccc(S(=O)(=O)N(C)C)cc1 | 2.23
CCCCCC(=O)O | 1.92
CC(=O)C1CCC2C3CCC4=CC(=O)CCC4(C)C3C(O)CC12C (stereo unspecified) | 2.36
NCCCC[C@H](N)C(=O)O | -3.05
Oc1c(Cl)ccc(Cl)c1Cl | 3.77
O=[N+]([O-])c1ccc2cccccc1-2 | 2.59
CCOCCN(CCOCC)N=O | 0.79
O=Cc1cccc(Oc2ccccc2)c1 | 3.38
CCCCSCS(=O)CC(CO)NC(=O)C=Cc1c(C)[nH]c(=O)[nH]c1=O (stereo unspecified) | 0.14
C=CCC1(CC)C(=O)NC(=O)N(C)C1=O (stereo unspecified) | 1.35
COCCO | -0.77
Nc1ccccc1N | 0.15
CNC(=O)Oc1ccccc1[N+](=O)[O-] | 1.02
Cc1cccc(OCC(=O)NNC(C)C)c1 | 1.77
Cc1cccc(C(N)=O)c1 | 1.18
NC(=O)C1(N2CCCCC2)CCN(CCCC(=O)c2ccc(F)cc2)CC1 | 2.02
O=C(O)COc1ccccc1Br | 2.04
CCOS(=O)(=O)OCC | 1.14
NNC(=O)c1ccncc1 | -0.7
C=CCOc1ccccc1Cc1cnc(N)nc1N | 2.31
COc1ccc(OC)c(Cc2cnc3nc(N)nc(N)c3c2C)c1 | 2.13
CC12CCC(=O)C=C1CCC1C2C(O)CC2(C)C1CCC2(O)C(=O)COC(=O)CCCCCO (stereo unspecified) | 2.79
CN1CCC(CN2c3ccccc3Sc3ccccc32)C1 (stereo unspecified) | 5.23
Brc1ccccn1 | 1.42

— the OPERA property sets (Mansouri et al. 2018)
